Experimental data reported in the NIST ThermoML archive (doi:10.1016/j.fluid.2018.07.014).
± gives the expanded uncertainty stated by the source.

Assay: Boiling temperature at pressure P
Conditions: Liquid, Closed cell (Static) method

Boiling temperature at pressure P (9.6 kPa) [°C] | Boiling temperature at pressure P (13.7 kPa) [°C] | Boiling temperature at pressure P (23.8 kPa) [°C] | Boiling temperature at pressure P (38.9 kPa) [°C] | Boiling temperature at pressure P (54.5 kPa) [°C] | Boiling temperature at pressure P (69.5 kPa) [°C] | Boiling temperature at pressure P (91.7 kPa) [°C] | Boiling temperature at pressure P (6.9 kPa) [°C] | Boiling temperature at pressure P (9 kPa) [°C] | Boiling temperature at pressure P (14.1 kPa) [°C] | Boiling temperature at pressure P (24.1 kPa) [°C] | Boiling temperature at pressure P (39.5 kPa) [°C] | Boiling temperature at pressure P (54.3 kPa) [°C] | Boiling temperature at pressure P (92.1 kPa) [°C] | Boiling temperature at pressure P (7.1 kPa) [°C] | Boiling temperature at pressure P (8.9 kPa) [°C] | Boiling temperature at pressure P (13.9 kPa) [°C] | Boiling temperature at pressure P (39.1 kPa) [°C] | Boiling temperature at pressure P (52.7 kPa) [°C] | Boiling temperature at pressure P (69.3 kPa) [°C] | Structure (SMILES)
30.2 ± 7.1 | 36.8 ± 5.2 | 47 ± 3.9 | 57.0 ± 3.1 | 64.4 ± 2.7 | 69.7 ± 2.4 | 76.6 ± 2.4 |  |  |  |  |  |  |  |  |  |  |  |  |  | CCO [ethanol]
 |  |  |  |  | 90.0 ± 2.6 |  | 38.8 ± 8.5 | 44 ± 7.7 | 53 ± 6 | 64.2 ± 4.3 | 75.7 ± 3.4 | 83.8 ± 2.8 | 98.0 ± 2.5 |  |  |  |  |  |  | O [water]
 |  |  |  |  |  | 141.8 ± 2.9 |  |  |  | 101.8 ± 4.9 |  |  |  | 72.2 ± 10 | 77.6 ± 9 | 88.0 ± 6.9 | 115.2 ± 3.7 | 122.6 ± 3 | 130.8 ± 2.9 | CCCCC(=O)OCC [ethyl pentanoate]
